According to patent US20150011466A1, “APJ Receptor Compounds” (priority 2012, published 2015):
pEC50: −log10 of the molar value. Read-outs that look alike come from different tables or passages of the source. Where a SMILES comes first, the peptide text is derived from it. [ ]: non-standard residue; d: D form. The star is where a group is joined. Palmitoyl = CCCCCCCCCCCCCCCC(=O)*; Aib = CC(C)(N)C(=O)O

Key:
[1] = molecular target: T1, APJ receptor (Homo sapiens, UniProt P35414); assay: HTRF cAMP assay, inhibition of NKH477 stimulated cAMP in Human TRex cells expressing APJ upon doxycycline induction (APJ-hTREX); type: cell-based; conditions: for Ranking: class combining EC50 and % histamine; for percent intrinsic activity at 0.3 µM: read-out: % IA (@ 300 nM)
T1 construct: expressed in transfected cells; host or cells: Human TRex cells (doxycycline-inducible)
T1 sequence (P35414 1-380): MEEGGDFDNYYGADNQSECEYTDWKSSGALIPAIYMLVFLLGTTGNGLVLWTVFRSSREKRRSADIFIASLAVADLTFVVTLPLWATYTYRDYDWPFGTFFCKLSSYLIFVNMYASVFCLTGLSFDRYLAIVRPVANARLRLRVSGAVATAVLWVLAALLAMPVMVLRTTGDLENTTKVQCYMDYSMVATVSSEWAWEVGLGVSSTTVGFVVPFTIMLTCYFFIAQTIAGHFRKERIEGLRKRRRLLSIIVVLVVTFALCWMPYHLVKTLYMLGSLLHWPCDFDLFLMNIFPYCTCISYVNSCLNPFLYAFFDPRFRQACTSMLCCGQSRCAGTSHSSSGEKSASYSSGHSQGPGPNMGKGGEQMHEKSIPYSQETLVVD
How it was run: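 Cells stimulated with NKH477 and cAMP measured by HTRF competitive immunoassay (cryptate anti-cAMP antibody, d2-labeled cAMP). APJ-hTREX cells induced with […] doxycycline and seeded overnight at 40 k/well.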

[2] = Histimine (% vs. 48/40)

CCCCCCCCCCCCCCCC(=O)N[C@H](C(=O)N[C@H](C(=O)N[C@@H](Cc1ccccc1)C(=O)NC(C)(C)C(=O)N[C@@H](CO)C(=O)N[C@@H](CO)C(=O)N[C@@H](CCC(=O)O)C(=O)N[C@H](CCCCN)C(=O)N[C@@H](CCCNC(=N)N)C(=O)N[C@@H](CCCNC(=N)N)C(=O)N[C@@H](CO)C(=O)N[C@@H](C)C(=O)N[C@@H](CC(=O)O)C(=O)N[C@H](C(=O)N[C@@H](Cc1ccccc1)C(=O)N[C@H](C(N)=O)[C@@H](C)CC)[C@@H](C)CC)C(C)C)[C@@H](C)O [Compound 58] (Palmitoyl-TVF[Aib]SSE[dK]RRSADIFI-NH2; C-terminus assumed)
pEC50 [1]: 5.00
Ranking [1]: * (EC50>500 nM and % histamine>35%)
percent intrinsic activity at 0.3 µM [1]: 54%
Histimine (% vs. 48/40) [2]: 11%

CCCCCCCCCCCCCCCC(=O)N[C@H](C(=O)N[C@H](C(=O)N[C@@H](Cc1ccccc1)C(=O)N[C@@H](CCCNC(=N)N)C(=O)N[C@@H](CO)C(=O)N[C@@H](CO)C(=O)N[C@@H](CCC(=O)O)C(=O)NC(C)(C)C(=O)N[C@@H](CCCNC(=N)N)C(=O)N[C@@H](CCCNC(=N)N)C(=O)N[C@@H](CO)C(=O)N[C@@H](C)C(=O)N[C@@H](CC(=O)O)C(=O)N[C@H](C(=O)N[C@@H](Cc1ccccc1)C(=O)N[C@H](C(N)=O)[C@@H](C)CC)[C@@H](C)CC)C(C)C)[C@@H](C)O [Compound 60] (Palmitoyl-TVFRSSE[Aib]RRSADIFI-NH2; C-terminus assumed)
pEC50 [1]: 6.78
Ranking [1]: **** (EC50 101-500 nM and % histamine<35%)
percent intrinsic activity at 0.3 µM [1]: 65%
Histimine (% vs. 48/40) [2]: 26%

CCCCCCCCCCCCCCCC(=O)N[C@H](C(=O)N[C@H](C(=O)N[C@@H](Cc1ccccc1)C(=O)N[C@@H](CCCNC(=N)N)C(=O)N[C@@H](CO)C(=O)N[C@@H](CO)C(=O)N[C@@H](CCC(=O)O)C(=O)N[C@H](CCCCN)C(=O)NC(C)(C)C(=O)N[C@@H](CCCNC(=N)N)C(=O)N[C@@H](CO)C(=O)N[C@@H](C)C(=O)N[C@@H](CC(=O)O)C(=O)N[C@H](C(=O)N[C@@H](Cc1ccccc1)C(=O)N[C@H](C(N)=O)[C@@H](C)CC)[C@@H](C)CC)C(C)C)[C@@H](C)O [Compound 61, TVFRSSEk(Aib)RSADIFI] (Palmitoyl-TVFRSSE[dK][Aib]RSADIFI-NH2; C-terminus assumed)
pEC50 [1]: 5.28
percent intrinsic activity at 0.3 µM [1]: 62%
Histimine (% vs. 48/40) [2]: 25%

CCCCCCCCCCCCCCCC(=O)N[C@H](C(=O)N[C@H](C(=O)N[C@@H](Cc1ccccc1)C(=O)N[C@@H](CCCNC(=N)N)C(=O)N[C@@H](CO)C(=O)N[C@@H](CO)C(=O)N[C@@H](CCC(=O)O)C(=O)N[C@H](CCCCN)C(=O)N[C@@H](CCCNC(=N)N)C(=O)NC(C)(C)C(=O)N[C@@H](CO)C(=O)N[C@@H](C)C(=O)N[C@@H](CC(=O)O)C(=O)N[C@H](C(=O)N[C@@H](Cc1ccccc1)C(=O)N[C@H](C(N)=O)[C@@H](C)CC)[C@@H](C)CC)C(C)C)[C@@H](C)O [Compound 62, TVFRSSEkR(Aib)SADIFI] (Palmitoyl-TVFRSSE[dK]R[Aib]SADIFI-NH2)
percent intrinsic activity at 0.3 µM [1]: 51%
Histimine (% vs. 48/40) [2]: 25%

CCCCCCCCCCCCCCCC(=O)N[C@H](C(=O)N[C@H](C(=O)N[C@@H](Cc1ccccc1)C(=O)N[C@@H](CCCNC(=N)N)C(=O)N[C@@H](CO)C(=O)N[C@@H](CO)C(=O)N[C@@H](CCC(=O)O)C(=O)N[C@H](CCCCN)C(=O)N[C@@H](CCCNC(=N)N)C(=O)N[C@@H](CCCNC(=N)N)C(=O)NC(C)(C)C(=O)N[C@@H](C)C(=O)N[C@@H](CC(=O)O)C(=O)N[C@H](C(=O)N[C@@H](Cc1ccccc1)C(=O)N[C@H](C(N)=O)[C@@H](C)CC)[C@@H](C)CC)C(C)C)[C@@H](C)O [Compound 63, TVFRSSEkRR(Aib)ADIFI] (Palmitoyl-TVFRSSE[dK]RR[Aib]ADIFI-NH2)
percent intrinsic activity at 0.3 µM [1]: 61%
Histimine (% vs. 48/40) [2]: 86%

CCCCCCCCCCCCCCCC(=O)N[C@H](C(=O)N[C@H](C(=O)N[C@@H](Cc1ccccc1)C(=O)N[C@@H](CCCNC(=N)N)C(=O)N[C@@H](CO)C(=O)N[C@@H](CO)C(=O)N[C@@H](CCC(=O)O)C(=O)N[C@H](CCCCN)C(=O)N[C@@H](CCCNC(=N)N)C(=O)N[C@@H](CCCNC(=N)N)C(=O)N[C@@H](CO)C(=O)NC(C)(C)C(=O)N[C@@H](CC(=O)O)C(=O)N[C@H](C(=O)N[C@@H](Cc1ccccc1)C(=O)N[C@H](C(N)=O)[C@@H](C)CC)[C@@H](C)CC)C(C)C)[C@@H](C)O [Compound 64, TVFRSSEkRRS(Aib)DIFI] (Palmitoyl-TVFRSSE[dK]RRS[Aib]DIFI-NH2)
percent intrinsic activity at 0.3 µM [1]: 60%
Histimine (% vs. 48/40) [2]: 105%

CCCCCCCCCCCCCCCC(=O)N[C@H](C(=O)N[C@H](C(=O)N[C@@H](Cc1ccccc1)C(=O)N[C@@H](CCCNC(=N)N)C(=O)N[C@@H](CO)C(=O)N[C@@H](CO)C(=O)N[C@@H](CCC(=O)O)C(=O)N[C@H](CCCCN)C(=O)N[C@@H](CCCNC(=N)N)C(=O)N[C@@H](CCCNC(=N)N)C(=O)N[C@@H](CO)C(=O)N[C@@H](C)C(=O)NC(C)(C)C(=O)N[C@H](C(=O)N[C@@H](Cc1ccccc1)C(=O)N[C@H](C(N)=O)[C@@H](C)CC)[C@@H](C)CC)C(C)C)[C@@H](C)O [Compound 65, TVFRSSEkRRSA(Aib)IFI] (Palmitoyl-TVFRSSE[dK]RRSA[Aib]IFI-NH2)
percent intrinsic activity at 0.3 µM [1]: 45%
Histimine (% vs. 48/40) [2]: 100%

CCCCCCCCCCCCCCCC(=O)N[C@H](C(=O)N[C@H](C(=O)N[C@@H](Cc1ccccc1)C(=O)N[C@@H](CCCNC(=N)N)C(=O)N[C@@H](CO)C(=O)N[C@@H](CO)C(=O)N[C@@H](CCC(=O)O)C(=O)N[C@H](CCCCN)C(=O)N[C@@H](CCCNC(=N)N)C(=O)N[C@@H](CCCNC(=N)N)C(=O)N[C@@H](CO)C(=O)N[C@@H](C)C(=O)N[C@@H](CC(=O)O)C(=O)N[C@H](C(=O)NC(C)(C)C(=O)N[C@H](C(N)=O)[C@@H](C)CC)[C@@H](C)CC)C(C)C)[C@@H](C)O [Compound 66] (Palmitoyl-TVFRSSE[dK]RRSADI[Aib]I-NH2; C-terminus assumed)
Ranking [1]: **** (EC50 101-500 nM and % histamine<35%)
pEC50 ([1]; inhibition of NKH477 stimulated cAMP, APJ-hTREX cells, read-out: APJ-hTREX EC50): 6.76
percent intrinsic activity at 0.3 µM [1]: 47%
Histimine (% vs. 48/40) [2]: 19%

CCCCCCCCCCCCCCCC(=O)N[C@H](C(=O)N[C@H](C(=O)N[C@@H](Cc1ccccc1)C(=O)N[C@@H](CCCNC(=N)N)C(=O)N[C@@H](CO)C(=O)N[C@@H](CO)C(=O)N[C@@H](CCC(=O)O)C(=O)N[C@H](CCCCN)C(=O)N[C@@H](CCCNC(=N)N)C(=O)N[C@@H](CCCNC(=N)N)C(=O)N[C@@H](CO)C(=O)N[C@@H](C)C(=O)N[C@@H](CC(=O)O)C(=O)N[C@H](C(=O)N[C@@H](Cc1ccccc1)C(=O)NC(C)(C)C(N)=O)[C@@H](C)CC)C(C)C)[C@@H](C)O [Compound 67, TVFRSSEkRRSADIF(Aib)] (Palmitoyl-TVFRSSE[dK]RRSADIF[Aib]-NH2)
percent intrinsic activity at 0.3 µM [1]: 46%
Histimine (% vs. 48/40) [2]: 50%

CCCCCCCCCCCCCCCC(=O)N[C@H](C(=O)NCC(=O)N[C@@H](Cc1ccccc1)C(=O)N[C@@H](CCCNC(=N)N)C(=O)N[C@@H](CO)C(=O)N[C@@H](CO)C(=O)N[C@@H](CCC(=O)O)C(=O)N[C@H](CCCCN)C(=O)N[C@@H](CCCNC(=N)N)C(=O)N[C@@H](CCCNC(=N)N)C(=O)N[C@@H](CO)C(=O)N[C@@H](C)C(=O)N[C@@H](CC(=O)O)C(=O)N[C@H](C(=O)N[C@@H](Cc1ccccc1)C(=O)N[C@H](C(N)=O)[C@@H](C)CC)[C@@H](C)CC)[C@@H](C)O [Compound 69] (Palmitoyl-TGFRSSE[dK]RRSADIFI-NH2; C-terminus assumed)
pEC50 [1]: 7.42
Ranking [1]: *** (EC50<100 nM and % histamine>35%)
percent intrinsic activity at 0.3 µM [1]: 77%
Histimine (% vs. 48/40) [2]: 50%

CCCCCCCCCCCCCCCC(=O)N[C@H](C(=O)N[C@H](C(=O)N[C@@H](Cc1ccccc1)C(=O)NCC(=O)N[C@@H](CO)C(=O)N[C@@H](CO)C(=O)N[C@@H](CCC(=O)O)C(=O)N[C@H](CCCCN)C(=O)N[C@@H](CCCNC(=N)N)C(=O)N[C@@H](CCCNC(=N)N)C(=O)N[C@@H](CO)C(=O)N[C@@H](C)C(=O)N[C@@H](CC(=O)O)C(=O)N[C@H](C(=O)N[C@@H](Cc1ccccc1)C(=O)N[C@H](C(N)=O)[C@@H](C)CC)[C@@H](C)CC)C(C)C)[C@@H](C)O [Compound 71] (Palmitoyl-TVFGSSE[dK]RRSADIFI-NH2; C-terminus assumed)
pEC50 [1]: 6.95
Ranking [1]: **** (EC50 101-500 nM and % histamine<35%)
percent intrinsic activity at 0.3 µM [1]: 65%
Histimine (% vs. 48/40) [2]: 6%

CCCCCCCCCCCCCCCC(=O)N[C@H](C(=O)N[C@H](C(=O)N[C@@H](Cc1ccccc1)C(=O)N[C@@H](CCCNC(=N)N)C(=O)NCC(=O)N[C@@H](CO)C(=O)N[C@@H](CCC(=O)O)C(=O)N[C@H](CCCCN)C(=O)N[C@@H](CCCNC(=N)N)C(=O)N[C@@H](CCCNC(=N)N)C(=O)N[C@@H](CO)C(=O)N[C@@H](C)C(=O)N[C@@H](CC(=O)O)C(=O)N[C@H](C(=O)N[C@@H](Cc1ccccc1)C(=O)N[C@H](C(N)=O)[C@@H](C)CC)[C@@H](C)CC)C(C)C)[C@@H](C)O [Compound 72] (Palmitoyl-TVFRGSE[dK]RRSADIFI-NH2; C-terminus assumed)
pEC50 [1]: 6.87
Ranking [1]: ** (EC50 101-500 nM and % histamine>35%)
percent intrinsic activity at 0.3 µM [1]: 75%
Histimine (% vs. 48/40) [2]: 44%
